Where two headings read alike, the source gives them in different places.

Data set [1] deals with pfDHODH (Plasmodium falciparum (isolate 3D7), UniProt Q08210). Description: DHODH chromogen reduction (DCIP) assay, pfDHODH. It counts as biochemical, P. falciparum. As to conditions: read-out: pfDHODH IC50.
Data set [2] has as its target hsDHODH (Homo sapiens (Human), UniProt Q02127). Description: DCIP assay, hsDHODH. It is filed as biochemical. The following applies: Table 3; DCIP assay, 20 nM hsDHODH; read-out: hsDHODH IC50. From the text:
Type 2 DHODH activity was monitored with either the direct assay measuring the formation of orotate or via a chromogen reduction assay using DCIP. Although the extinction coefficient and absorption wavelength are preferable for the chromogen reduction assay, the inorganic electron acceptor DCIP can be utilized by DHODH as the final electron acceptor in lieu of CoQn when the endogenous substrate is at a low concentration. As such, the direct assay was used to measure the binding affinity of pfDHODH to CoQD and L-DHO. The enzymatic reaction was performed by varying the L-DHO concentration (1-400 μM) or CoQD concentration (1-200 μM) while keeping the other substrate constant and in excess. The formation of orotate was measured continuously at 296 nm (ε296=4.3 mM^−1 cm^−1). Inhibition of DHODH by small molecules was evaluated using the chromogen based assay with a final substrate concentration of 200 μM L-DHO, 18 μM CoQD, and 100 μM DCIP, unless otherwise noted. The reduction of DCIP was monitored at 600 nm (ε600=18.8 mM^−1 cm^−1).
Substrate specificity and enzyme inhibition data was analyzed with GraphPad Prism Version 4 for Windows (GraphPad Software). Kinetic constants were calculated by non-linear regression fitting of the data to the Michaelis-Menten equation [36]. IC50 values were determined by non-linear regression fitting of the data to Equation 1: […]

The subject of data set [3] is P. falciparum 3D7. Description: Inhibition of in vitro P. falciparum culture, [3H]-hypoxanthine uptake, 3D7. It is filed as cell-based. The following applies: Plasmodium falciparum; for EC50: 3D7, Table 2b, read-out: 3D7 EC50; for IC50: 3D7, Table 3, [3H]-hypoxanthine uptake, read-out: 3D7 IC50. A digest of the protocol: (§1)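 Parasite growth inhibition measured as relative reduction of [3H]-hypoxanthine uptake in in vitro cultures. Values from non-linear regression fit, using relative growth velocity in place of product-formation rate.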

Data set [4] relates to P. falciparum Dd2. Description: Inhibition of in vitro P. falciparum culture, [3H]-hypoxanthine uptake, Dd2. As to conditions: Plasmodium falciparum; for EC50: DD2, Table 2b, read-out: Dd2 EC50; for IC50: DD2, Table 3, [3H]-hypoxanthine uptake, read-out: Dd2 IC50. It is filed as cell-based. A digest of the protocol:
as §1

Data set [5] in a line: Solubility measurement. It is filed as physicochemical. As to conditions: aqueous buffer, thermodynamic from solid; read-out: Solubility. From the text: Many standard techniques are known in the art to establish the solubility of a compound in a particular solvent. The following description is one such technique that could be used to determine the solubility: Equilibrium solubility measurements start with the solid form of the compound (crystalline form preferred). The powder is physically mixed with an aqueous buffer (defined pH) until equilibrium is reached. Either centrifugation or filtration can be used to separate the solution from the remaining solid. The amount dissolved in the solution can be determined by any one of many known methods including HPLC or UV/Vis spectroscopic techniques.

Data set [6] is described as follows: Permeability. It is filed as in vitro ADME. As to conditions: Caco-2. The method, then:
Permeability assays using the Caco-2 colon carcinoma cell line are being used throughout the pharmaceutical industry to estimate the ability of potential drug compounds to cross the intestinal epithelium. Caco-2 cell permeability studies are performed using Caco-2 cell monolayers grown on microporous membranes in multiwell insert systems. With the inserts suspended in the wells of multiwell plates, test compounds can be added to either the upper (apical) or lower (basolateral) chamber to measure permeability in the absorptive (apical to basolateral) or secretive (basolateral to apical) directions. Samples are then taken from the opposite chamber at various time intervals to measure the amount of test compound that has crossed the cell monolayer. A representative method to generate permeability data similar to that in Table 3 can be found in Alsenz, J; Haenel, E. “Development of a 7-Day, 96-Well Caco-2 Permeability Assay with High-Throughput Direct UV Compound Analysis.” Pharmaceutical Research 2003 20(12): p 1961-1969.
Parallel artificial membrane permeability assay (PAMPA) utilizes a simple phospholipid-coated filter disc to measure membrane permeability. It was developed as an alternative to the low throughput. Caco-2 cell permeability assay used to correlate passive permeability with in vivo oral absorption. A representative publication disclosing this method is Kerns, E H; Di, L; Petusky, S; Farris, M; Ley, R; Jupp, P. “Combined application of parallel artificial membrane permeability assay and Caco-2 permeability assays in drug discovery.” J. Pharma Sci. 2004, 93 (6), pages 1440-53.
Cell culture methods (e.g. Caco-2, HT-29 and MDC) and physicochemical methods such as PAMPA and immobilized artificial membrane (IAM) columns are known in the art and can be used to obtain data such as that in Table 3. Hidalgo, I J; “Assessing the absorption of new pharmaceuticals.” Curr Top Med. Chem. 2001 November; 1(5): p 385-401.
(Passage across Caco-2 layers is used to estimate intestinal permeability.)

The nature of data set [7]: Log D measurement. It counts as physicochemical. As to conditions: octanol/water; read-out: LogD. An excerpt: Many standard techniques are known in the art to establish the distribution coefficient of a compound between two particular solvents. The following description is one such technique that could be used to determine the distribution coefficient: The shake-flask method, which consists of dissolving some of the compound in a volume of octanol and water, then physically shaking the mixture and allowing the two solvents to fully separate. The concentration of the compound in each solvent is then measured. The most common method of measuring the distribution of the solute is by HPLC or UV/Vis spectroscopic techniques.

Data set [8] deals with Cytochrome P450 1A2 (Homo sapiens (Human), UniProt P05177). It counts as in vitro ADME. From the text:
(§2) Rapid screening for cytochrome P450 inhibitors is part of the current paradigm for avoiding development of drugs likely to give clinical pharmacokinetic drug-drug interactions and associated toxicities. There are commercially available assays for such screenings. For example, BD Biosciences (http://www.bdbiosciences.com/index.shtml) provides a technical bulletin describing a detailed, step-by-step procedure for the performance of the high throughput cytochrome P450 inhibition testing method.

Data set [9] concerns the target Cytochrome P450 2C19 (Homo sapiens (Human), UniProt P33261). Description: Cytochrome P450 inhibition, 2C19. It counts as in vitro ADME.
Description: as §2

Data set [10] deals with Cytochrome P450 2C9 (Homo sapiens (Human), UniProt P11712). Description: Cytochrome P450 inhibition, 2C9. It is filed as in vitro ADME.
Chain of Cytochrome P450 2C9 (P11712 whole entry): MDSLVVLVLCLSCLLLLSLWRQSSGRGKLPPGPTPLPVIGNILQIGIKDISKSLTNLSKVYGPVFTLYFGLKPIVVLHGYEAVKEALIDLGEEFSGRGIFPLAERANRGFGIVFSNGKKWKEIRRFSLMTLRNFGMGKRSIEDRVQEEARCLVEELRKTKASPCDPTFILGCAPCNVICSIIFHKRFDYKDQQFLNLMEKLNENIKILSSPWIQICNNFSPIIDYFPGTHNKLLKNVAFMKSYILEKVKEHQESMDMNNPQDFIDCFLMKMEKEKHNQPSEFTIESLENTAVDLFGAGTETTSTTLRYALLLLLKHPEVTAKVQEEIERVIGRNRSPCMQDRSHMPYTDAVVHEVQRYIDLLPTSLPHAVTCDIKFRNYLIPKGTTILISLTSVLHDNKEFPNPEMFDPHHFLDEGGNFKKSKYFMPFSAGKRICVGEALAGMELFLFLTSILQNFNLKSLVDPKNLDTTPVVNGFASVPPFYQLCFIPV
Description: as §2

The target in data set [11] is Cytochrome P450 2D6 (Homo sapiens (Human), UniProt P10635). Description: Cytochrome P450 inhibition, 2D6. It counts as in vitro ADME.
Chain of Cytochrome P450 2D6 (P10635 whole entry): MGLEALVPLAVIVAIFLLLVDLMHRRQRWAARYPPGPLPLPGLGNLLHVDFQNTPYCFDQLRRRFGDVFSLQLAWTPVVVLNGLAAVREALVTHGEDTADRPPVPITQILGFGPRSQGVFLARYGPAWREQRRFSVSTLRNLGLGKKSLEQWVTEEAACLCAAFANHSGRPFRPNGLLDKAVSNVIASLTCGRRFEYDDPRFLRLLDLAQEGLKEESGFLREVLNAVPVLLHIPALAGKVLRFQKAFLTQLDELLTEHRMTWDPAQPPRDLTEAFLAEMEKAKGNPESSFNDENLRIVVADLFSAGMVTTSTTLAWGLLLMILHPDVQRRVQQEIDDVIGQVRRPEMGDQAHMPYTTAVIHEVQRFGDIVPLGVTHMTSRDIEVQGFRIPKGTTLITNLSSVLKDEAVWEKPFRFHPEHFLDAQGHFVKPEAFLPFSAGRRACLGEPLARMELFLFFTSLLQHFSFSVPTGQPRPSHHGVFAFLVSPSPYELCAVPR
Description: as §2

Data set [12] deals with Cytochrome P450 3A4 (Homo sapiens (Human), UniProt P08684). Description: Cytochrome P450 inhibition, 3A4. It counts as in vitro ADME.
Chain of Cytochrome P450 3A4 (P08684 whole entry): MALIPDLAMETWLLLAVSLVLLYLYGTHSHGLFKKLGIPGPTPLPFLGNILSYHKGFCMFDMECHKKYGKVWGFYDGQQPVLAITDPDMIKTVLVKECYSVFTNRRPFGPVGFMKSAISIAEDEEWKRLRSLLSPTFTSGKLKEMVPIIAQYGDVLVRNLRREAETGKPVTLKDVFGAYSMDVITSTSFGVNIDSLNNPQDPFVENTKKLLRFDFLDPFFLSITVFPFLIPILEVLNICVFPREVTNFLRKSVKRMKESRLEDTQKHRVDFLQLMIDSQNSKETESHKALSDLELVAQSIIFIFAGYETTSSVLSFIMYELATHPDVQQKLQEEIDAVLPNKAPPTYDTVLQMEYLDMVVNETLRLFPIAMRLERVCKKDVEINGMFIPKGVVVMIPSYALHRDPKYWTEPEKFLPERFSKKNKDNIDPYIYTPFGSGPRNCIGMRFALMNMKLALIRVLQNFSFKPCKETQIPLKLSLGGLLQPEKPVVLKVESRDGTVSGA
Description: as §2

The nature of data set [13]: Hepatic clearance, human. It is filed as in vitro ADME. An excerpt: (§3) Clearance of drug by the liver will depend on the rate of delivery of drug to the liver (the hepatic blood flow) and on the efficiency of removal of drug which is presented to it (the extraction ratio). The hepatic clearance of compounds can be determined by standard methods known in the art. Such methods are described in, for example, Naritomi, Y; Terashita, S; Kagayama, A; Sugiyama, Y. “Utility of Hepatocytes in Predicting Drug Metabolism: Comparison of Hepatic Intrinsic Clearance in Rats and Humans in Vivo and in Vitro.” 2003, 31 (5): pages 580-588.

The nature of data set [14]: Hepatic clearance, rat. It counts as in vitro ADME.
Description: as §3

Setting [15] is: Table 3, DCIP assay, 20 nM pfDHODH.

Chain of pfDHODH (Q08210 159-565 limits assumed): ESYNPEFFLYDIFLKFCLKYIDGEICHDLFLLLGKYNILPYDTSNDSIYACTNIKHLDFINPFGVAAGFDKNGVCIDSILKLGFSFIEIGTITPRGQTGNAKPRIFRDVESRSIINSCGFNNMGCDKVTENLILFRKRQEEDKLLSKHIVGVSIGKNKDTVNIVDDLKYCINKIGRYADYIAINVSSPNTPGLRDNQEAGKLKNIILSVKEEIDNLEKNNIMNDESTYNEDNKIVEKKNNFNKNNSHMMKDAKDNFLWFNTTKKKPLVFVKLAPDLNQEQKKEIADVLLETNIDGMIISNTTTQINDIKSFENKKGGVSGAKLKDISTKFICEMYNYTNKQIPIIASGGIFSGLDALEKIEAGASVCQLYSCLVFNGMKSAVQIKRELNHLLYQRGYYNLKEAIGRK
Chain of Cytochrome P450 1A2 (P05177 whole entry): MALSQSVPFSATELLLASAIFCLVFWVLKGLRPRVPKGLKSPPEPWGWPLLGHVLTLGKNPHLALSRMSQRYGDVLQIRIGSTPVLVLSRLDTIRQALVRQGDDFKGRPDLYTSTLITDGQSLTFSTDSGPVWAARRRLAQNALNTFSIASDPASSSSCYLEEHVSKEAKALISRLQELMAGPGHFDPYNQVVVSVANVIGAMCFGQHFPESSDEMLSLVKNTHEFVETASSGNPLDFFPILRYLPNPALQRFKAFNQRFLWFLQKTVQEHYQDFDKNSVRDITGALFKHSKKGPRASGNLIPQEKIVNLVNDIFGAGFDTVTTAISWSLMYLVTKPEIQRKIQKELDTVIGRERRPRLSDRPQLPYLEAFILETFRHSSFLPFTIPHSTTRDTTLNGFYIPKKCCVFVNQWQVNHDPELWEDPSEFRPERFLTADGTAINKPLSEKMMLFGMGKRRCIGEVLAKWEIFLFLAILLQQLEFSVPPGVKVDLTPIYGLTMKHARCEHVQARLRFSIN
Chain of hsDHODH (Q02127 29-395 limits assumed): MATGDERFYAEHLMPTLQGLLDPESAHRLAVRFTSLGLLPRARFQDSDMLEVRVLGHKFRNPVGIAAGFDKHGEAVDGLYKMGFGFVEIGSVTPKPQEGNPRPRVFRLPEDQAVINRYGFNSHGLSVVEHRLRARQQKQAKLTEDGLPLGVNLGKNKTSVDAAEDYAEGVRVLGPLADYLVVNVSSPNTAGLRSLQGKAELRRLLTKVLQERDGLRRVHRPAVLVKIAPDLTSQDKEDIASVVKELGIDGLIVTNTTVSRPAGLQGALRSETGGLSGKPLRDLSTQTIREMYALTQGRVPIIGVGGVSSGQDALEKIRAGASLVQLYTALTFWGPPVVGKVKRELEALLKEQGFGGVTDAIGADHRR
Chain of Cytochrome P450 2C19 (P33261 whole entry): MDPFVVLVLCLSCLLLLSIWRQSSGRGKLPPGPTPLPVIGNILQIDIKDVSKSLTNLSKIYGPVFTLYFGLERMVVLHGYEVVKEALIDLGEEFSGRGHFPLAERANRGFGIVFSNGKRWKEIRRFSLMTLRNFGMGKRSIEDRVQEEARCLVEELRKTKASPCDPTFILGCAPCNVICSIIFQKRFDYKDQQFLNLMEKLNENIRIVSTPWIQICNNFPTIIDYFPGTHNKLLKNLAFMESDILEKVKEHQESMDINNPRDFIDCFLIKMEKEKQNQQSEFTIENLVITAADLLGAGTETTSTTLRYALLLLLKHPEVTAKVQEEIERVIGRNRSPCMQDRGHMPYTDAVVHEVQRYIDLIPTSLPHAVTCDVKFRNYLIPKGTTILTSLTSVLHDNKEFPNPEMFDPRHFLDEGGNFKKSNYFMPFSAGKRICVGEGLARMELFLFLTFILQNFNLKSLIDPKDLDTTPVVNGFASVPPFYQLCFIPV

Regarding `CCCNC(=O)c1ccc(-n2cccn2)s1` [Compound 9, N-propyl-5-(1H-pyrazol-1-yl)thiophene-2-carboxamide], the IC50 is greater than 250 µM in [1] (Table 2b); greater than 30 µM in [1] (setting [15]); greater than 30 µM in data set [2]; greater than 10 µM in data set [3]; greater than 10 µM in data set [4]. For the same compound, the EC50 in data set [3] and in [4] was greater than 10 µM in each case. For the same compound, the solubility in [5] is greater than 30 µg/mL. The compound further yielded a Papp in data set [6] of 22 ×10⁻⁶ cm/s. For the same compound, the logD in data set [7] came out at 2.2. Further, in data set [8], the “Cytochrome P450 Inhibition, 1A2” value is on record as greater than 5.0 in 1A2 μM. For the same compound, the “Cytochrome P450 Inhibition, 2C19” value in data set [9] is reported as greater than 5.0 in 2C19 μM. Besides, the “Cytochrome P450 Inhibition, 2C9” value in [10] is greater than 5.0 in 2C9 μM. Further, the “Cytochrome P450 Inhibition, 2D6” value in data set [11] is greater than 5.0 in 2D6 μM. Besides, the “Cytochrome P450 Inhibition, 3A4” value in data set [12] is greater than 5.0 in 3A4 μM. Also, the microsomal CLint in data set [13] is 59 µL/min/mg; in data set [14] it was 104 µL/min/mg.
On to `CCCNC(=O)c1ccc(N2CCCCC2)s1` [Compound 8, 5-(piperidin-1-yl)-N-propylthiophene-2-carboxamide], for which the IC50 in data set [1] (Table 2b) was 230 µM; in data set [1] (setting [15]), greater than 30 µM; in data set [2], greater than 30 µM; in data set [3], greater than 10 µM; in [4] it was greater than 10 µM. Besides, the EC50 in data set [3] and in data set [4] was greater than 10 µM in each case. In addition, the solubility in data set [5] was greater than 30 µg/mL. The compound also had a Papp in data set [6] of 43 ×10⁻⁶ cm/s. Moreover, the logD in [7] worked out at 3.2. Further, the “Cytochrome P450 Inhibition, 1A2” value in data set [8] is listed as greater than 5.0 in 1A2 μM. In addition, the “Cytochrome P450 Inhibition, 2C19” value in [9] is reported as greater than 5.0 in 2C19 μM. Also, in data set [10], the “Cytochrome P450 Inhibition, 2C9” value was greater than 5.0 in 2C9 μM. Further, the “Cytochrome P450 Inhibition, 2D6” value in [11] was greater than 5.0 in 2D6 μM. Moreover, the “Cytochrome P450 Inhibition, 3A4” value in data set [12] is on record as greater than 5.0 in 3A4 μM. For the same compound, the microsomal CLint in [13] is greater than 72 µL/min/mg; in data set [14] it was greater than 119 µL/min/mg.

As a reminder, the IC50 is the concentration that inhibits the measured activity by half. For orientation: EC50 means the concentration giving half of the maximal effect. What is called solubility is the concentration that dissolves in the medium under given conditions. By Papp is commonly meant a coefficient for how fast a substance crosses the barrier. The low end stands for slow passage, the high end for fast passage. As usually defined, the logD is the decadic logarithm of the distribution of all forms, ionised or not, between an organic phase and buffer at a given pH. The microsomal CLint is the capacity of the preparation to metabolise the compound, expressed as a volume cleared per time. Low values mean greater metabolic stability, high ones faster metabolism.
